Measured values published in PubChem BioAssay AID1508612.

Experiment: passive permeability, PAMPA, ADME assay (AID 1508612)
Details: pH 7.4, 30.0 min, 50.0 µM

| Compound | Papp |
| --- | --- |
| CN(C(=O)COC(=O)c1csc(NCc2ccccc2)n1)c1ccccc1 | > 1000 ×10⁻⁶ cm/s |
| CCN(c1ccccc1)S(=O)(=O)c1c(C)nc2scc(C)n2c1=O | 615 ×10⁻⁶ cm/s |
| Cc1cnc(CNc2nc(-c3ccccc3Cl)nc3ccccc23)cn1 | > 1000 ×10⁻⁶ cm/s |
| CCCCC(C)/C=C(C)/C=C(\C)C(=O)NC1=CC(O)(/C=C/C=C/C=C/C(=O)NC2=C(O)CCC2=O)C2OC2C1=O (centres undefined) | 955 ×10⁻⁶ cm/s |
| CCCCn1cc2c(c1-c1ccc(Br)cc1)c(=O)n(C)c(=O)n2C | > 1000 ×10⁻⁶ cm/s |
| O=C(c1ccccc1)N1CCC(c2nn(-c3ccc(F)cc3)c(=O)[nH]2)CC1 | 679 ×10⁻⁶ cm/s |
| O=C(NCCCN1CCCC1=O)c1ccc(-c2ncc3cnc(-c4ccccc4)cn23)cc1 | 292 ×10⁻⁶ cm/s |
| CC(C)Nc1oc(-c2cccc3ccccc23)nc1C#N | > 1000 ×10⁻⁶ cm/s |
| COc1ccc(C(=O)N2CCCC(c3nn(-c4ccc(OC)cc4)c(=O)[nH]3)C2)cc1 (centres undefined) | 599 ×10⁻⁶ cm/s |
| N=c1c2c(ccn1CCc1ccccc1)Oc1ccc3ccccc3c1C2c1ccccc1 (centres undefined) | 553 ×10⁻⁶ cm/s |
| Cc1ccnc(NC(=S)N2CC[C@@H](Nc3cccc(C(F)(F)F)c3)C2)c1 | > 1000 ×10⁻⁶ cm/s |
| COc1cc2c(C(=O)N3CCN(c4cccc(C(F)(F)F)c4)CC3)cn(CC(C)C)c(=O)c2cc1OC | > 1000 ×10⁻⁶ cm/s |
| O=C1Nc2ccc(I)cc2C1=Cc1cc(Br)c(O)c(Br)c1 | 150 ×10⁻⁶ cm/s |
| O=C(Nc1ccc(F)cc1F)c1cc(-c2ccc[nH]2)n[nH]1 | 103 ×10⁻⁶ cm/s |
| CCCc1c(CC)c(=N)c2ccccc2n1C | 6.67 ×10⁻⁶ cm/s |
| O=C(Nc1nc(-c2ccccn2)cs1)c1cccc(-n2cnnn2)c1 | 290 ×10⁻⁶ cm/s |
| O=C(NC1CCCc2c1[nH]c1ccc(Cl)cc21)c1ccncc1 (centres undefined) | 7.6 ×10⁻⁶ cm/s |
| Cc1ccc(C(=O)Nc2nc(-c3ccccn3)cs2)cc1S(=O)(=O)N1CCOCC1 | 540 ×10⁻⁶ cm/s |
| CSc1ncc(Cl)c(C(=O)Nc2c(C)cccc2C)n1 | 508 ×10⁻⁶ cm/s |
| COc1ccc(C(=O)CCN(C)C)cc1F | 410 ×10⁻⁶ cm/s |
| COc1ccc(-n2c(C)cc(C3=NNC(=NC4CC4)SC3)c2C)cc1 | 610 ×10⁻⁶ cm/s |
| Cc1cnccc1-c1nc(Nc2ccc(F)c(F)c2)c2ccccc2n1 | 31.1 ×10⁻⁶ cm/s |
| NC(=O)C1CCN(c2nc(-c3ccccc3N)cs2)CC1 | 136 ×10⁻⁶ cm/s |
| CNc1nc2c(s1)C(c1ccc(Cl)cc1)CC(=O)N2 (centres undefined) | 308 ×10⁻⁶ cm/s |
| O=C1Nc2ccccc2C12CC2c1cc(Cl)c(O)c(Cl)c1 (centres undefined) | 278 ×10⁻⁶ cm/s |
| COc1ccc(-n2nc(C3CCN([S+](=O)([O-])c4cccc(C(F)(F)F)c4)CC3)[nH]c2=O)cc1 | 242 ×10⁻⁶ cm/s |

| Compound | Papp |
| --- | --- |
| CCOC(=O)C1=C(C)NC(=O)CC1C(=O)Nc1cc(Cl)cc(Cl)c1 (centres undefined) | 599 ×10⁻⁶ cm/s |
| O=C(c1nc(-c2cccnc2)c2ccccn12)N1CCN(c2ncccn2)CC1 | > 1000 ×10⁻⁶ cm/s |
| O=c1cc(/C=C/c2c(F)cccc2Cl)[nH]c2ccccc12 | 205 ×10⁻⁶ cm/s |
| Cc1noc(C)c1-c1ccc(-c2cc(C(N)=O)c(NC(N)=O)s2)c(O[C@H]2CCNC2)c1 | < 1 ×10⁻⁶ cm/s |
| COCCNC(=O)[C@H]1C[C@H](Oc2ccccc2)CN1Cc1ccc2[nH]ccc2c1 | 961 ×10⁻⁶ cm/s |
| COC(=O)c1c(NC(=O)Cc2coc3cc(C)ccc23)sc2c1CCC2 | 26 ×10⁻⁶ cm/s |
| CNC(=O)Cn1cc(-c2ccc3c(c2)C(F)CC32NC(=O)N(CC(=O)N(Cc3ccc(F)cc3)[C@@H](C)C(F)(F)F)C2=O)cn1 (some centres undefined) | 115 ×10⁻⁶ cm/s |
| COc1ccc(C2Nc3ccccc3C(=O)N2Cc2cccnc2)cc1COc1c(C)cc(NC(C)=O)cc1C (centres undefined) | > 1000 ×10⁻⁶ cm/s |
| O=C(Nc1nc(-c2ccccc2)cs1)c1ccncc1NS(=O)(=O)c1ccccc1 | 501 ×10⁻⁶ cm/s |
| Nc1ccccc1CNc1ccc(S(=O)(=O)Nc2nccs2)cc1 | 1.09 ×10⁻⁶ cm/s |
| C=C[C@@]1(C)C[C@H](OC(=O)CSC(C)(C)CNC(=O)[C@@H](N)C(C)C)[C@@]2(C)C(C)CC[C@@]3(CCC(=O)[C@@H]32)[C@H](C)[C@H]1O (some centres undefined) | > 1000 ×10⁻⁶ cm/s |
| CCOC(=O)c1c(NC(=O)CN2CCCCC2)sc2c1CCN(C(=O)OCC)C2 | > 1000 ×10⁻⁶ cm/s |
| Cc1ccc(S(=O)(=O)Nc2ccc(F)cc2C(=O)Nc2nc(-c3ccccc3)cs2)cc1 | 21.4 ×10⁻⁶ cm/s |
| CCOC(=O)c1nnc(N[S+](=O)([O-])c2ccc(NC(=O)Cc3ccc(Cl)c(Cl)c3)cc2)s1 | 1.1 ×10⁻⁶ cm/s |
| O=C(c1ccc2c(c1)ncn2-c1cccc(Cl)c1)N1CCCCC1 | 895 ×10⁻⁶ cm/s |
| Cc1noc(C)c1-c1cc2c(cc(C)n2C)c(-c2cnn(C)c2)n1 | 549 ×10⁻⁶ cm/s |
| Cc1ccc(-c2nnc(Nc3ccc(Br)cc3)c3ccccc23)cc1S(=O)(=O)N1CCN(C)CC1 | > 1000 ×10⁻⁶ cm/s |
| COc1ccccc1CNS(=O)(=O)c1ccc(-c2cnc(C3CC3)o2)cc1 | > 1000 ×10⁻⁶ cm/s |
| Cc1ccc(NC(=O)Nc2cc3c(cc2N2CCCCC2)n(C)c(=O)n3C)cc1Cl | 8 ×10⁻⁶ cm/s |
| CCN1CCN(CCCOc2ccc(-c3ccccc3)cc2)CC1 | > 1000 ×10⁻⁶ cm/s |
| NC(=O)C1CCN(c2nnc(-c3ccc4c(c3)OCCCO4)s2)CC1 | 83.8 ×10⁻⁶ cm/s |
| CCOc1cc(=O)n2c(c1C(=O)Nc1cc(OC)c(Cl)cc1OC)CCCC2 | 96.6 ×10⁻⁶ cm/s |
| COc1ccc(C2=Nn3c(nnc3-c3ccncc3)SC2)cc1 | 244 ×10⁻⁶ cm/s |
| COc1c(Cl)cc2c([nH]c3cnccc32)c1NC(=O)c1cccnc1C | 440 ×10⁻⁶ cm/s |
| Fc1cnc(-c2ccccc2C(F)F)nc1NCc1ccc(-n2ccnn2)cc1 | > 1000 ×10⁻⁶ cm/s |
| COc1ncccc1-c1cc2c(ccn2CC2CCN([S+](C)(=O)[O-])CC2)c(N2CCOCC2)n1 | > 1000 ×10⁻⁶ cm/s |

| Compound | Papp |
| --- | --- |
| CCOc1ccc(OCC)c(NC(=O)C(NS(=O)(=O)c2ccc(Br)s2)c2ccccc2)c1 (centres undefined) | 1.1 ×10⁻⁶ cm/s |
| Cn1nnnc1Sc1ncnc2scc(-c3ccc(F)cc3)c12 | 911 ×10⁻⁶ cm/s |
| NC(=O)C1CCN(c2nc(-c3ccc(OCc4ccccc4)cc3)cs2)CC1 | < 1 ×10⁻⁶ cm/s |
| O=C(Nc1ccc(-c2ccccc2)cc1)[C@H](Cc1ccc(O[S+](=O)([O-])c2cccc3cnccc23)cc1)N[S+](=O)([O-])c1cccc2cnccc12 | 18.5 ×10⁻⁶ cm/s |
| COc1ccc(S(=O)(=O)N(C(=O)C(C)C)c2ccc3oc(=O)sc3c2)cc1 | 658 ×10⁻⁶ cm/s |
| CC[C@@H](C)Nc1cc(C(=O)NC2CC3CCC(C2)N3c2ccc(C(=O)C3CC3)cn2)c(C)cc1C(N)=O (some centres undefined) | > 1000 ×10⁻⁶ cm/s |
| O=[N+]([O-])c1cccc(CNc2ccc(S(=O)(=O)Nc3nccs3)cc2)c1O | 28.6 ×10⁻⁶ cm/s |
| C[C@]12N[C@H](Cc3ccccc31)c1ccccc12 | > 1000 ×10⁻⁶ cm/s |
| Cc1ccc(OCCn2c(CCNC(=O)c3ccc(Cl)cc3)nc3ccccc32)cc1 | 754 ×10⁻⁶ cm/s |
| Clc1ccc(-c2nnc(C3CCCCC3)o2)cc1 | > 1000 ×10⁻⁶ cm/s |
| COc1cccc(S(=O)(=O)Nc2cnccc2C(=O)Nc2nc(-c3ccccc3)cs2)c1 | 696 ×10⁻⁶ cm/s |
| CC1CCN(S(=O)(=O)c2ccc3c(c2)C(C)(C)C(=O)N3CC(=O)NCc2ccco2)CC1 | 584 ×10⁻⁶ cm/s |
| O=C1NC(=S)NC(=O)C1=Cc1cccn1-c1ccc(O)cc1 | 44.1 ×10⁻⁶ cm/s |
| COc1ccc(NC2=C(c3ccc(C(F)(F)F)cc3)C(=O)c3ccccc32)cc1 | 82 ×10⁻⁶ cm/s |
| CN(C)c1cccc(-c2nc(N3CCC(C(N)=O)CC3)ncc2F)c1 | 780 ×10⁻⁶ cm/s |
| CC#CC(=O)N1CCC[C@H]1c1nc(-c2ccc(C(=O)Nc3ccccn3)cc2)c2c(N)nccn12 | 39.9 ×10⁻⁶ cm/s |
| CC(C)(N)C(=O)N[C@H](COCc1ccccc1)C(=O)N1CCC2(CC1)CN(S(C)(=O)=O)c1ccccc12 | 819 ×10⁻⁶ cm/s |
| Cn1nnnc1Sc1ncnc2sccc12 | 67.6 ×10⁻⁶ cm/s |
| N#Cc1ccccc1S(=O)(=O)Nc1cnccc1C(=O)Nc1nc(-c2ccccc2)cs1 | 61.8 ×10⁻⁶ cm/s |
| Fc1ccc(-c2ccc(Nc3nc(-c4ccncc4)nc4ccccc34)cc2F)c(Cl)c1 | 20.9 ×10⁻⁶ cm/s |
| NC(=O)COc1ccc(C2CC(=O)Nc3n[nH]c(Nc4ccccc4)c32)cc1 (centres undefined) | 2.8 ×10⁻⁶ cm/s |
| Clc1ccc(Nc2nc(-c3ccncc3)nc3ccccc23)cc1Cl | 76.1 ×10⁻⁶ cm/s |
| CCCc1nnc(NC(=O)c2nc(S(=O)(=O)Cc3ccc(C)cc3)ncc2Cl)s1 | 89.4 ×10⁻⁶ cm/s |
| Cc1cccc(C(=O)Nc2ccc(N3CCC(N4CCCCC4)CC3)c(C(=O)O)c2)c1 | 5.2 ×10⁻⁶ cm/s |
| CC(=O)N1CCN(c2ccc(OCc3nn(C)c(C)c3-c3cccc4c(CCCOc5cc(C)c(Cl)c(C)c5)c(C(=O)O)n(Cc5cccnc5)c34)cc2)CC1 | 370 ×10⁻⁶ cm/s |
| CCCCCn1c(=O)[nH]c2cc(C(=O)NCCCN3CCC(C)CC3)ccc2c1=O | 91.7 ×10⁻⁶ cm/s |

| Compound | Papp |
| --- | --- |
| Cc1noc(C)c1-c1ccc(Nc2nc(-c3ccncc3)nc3ccccc23)cc1F | 410 ×10⁻⁶ cm/s |
| CC(=O)Nc1ccc(C(=O)Nc2ccccc2N)cc1 | < 1 ×10⁻⁶ cm/s |
| COc1ccc(-n2c(C)cc(-c3nnc4n3CCCCC4)c2C)cc1 | 488 ×10⁻⁶ cm/s |
| Cc1ccnc(NC(=S)N2CCN(c3ncc(C(F)(F)F)cc3Cl)CC2)c1 | 930 ×10⁻⁶ cm/s |
| Cc1cccc(-n2cnc3cc(C(=O)N4CCCC(C(F)(F)F)C4)ccc32)c1 (centres undefined) | > 1000 ×10⁻⁶ cm/s |
| COc1ccc(-n2nc(C3CCCN(C(=O)c4ccccc4F)C3)[nH]c2=O)cc1 (centres undefined) | 476 ×10⁻⁶ cm/s |
| CS(=O)(=O)c1ccc(-c2cnc(NCc3ccco3)n3cnnc23)cc1 | 16.7 ×10⁻⁶ cm/s |
| CCOC(=O)c1[nH]c(C)c(CCC(=O)N2CCN(c3cc(C)ccc3C)CC2)c1C | > 1000 ×10⁻⁶ cm/s |
| Cc1ccc(-c2cc(C(=O)Nc3ccc(C#N)cc3)c3ccccc3n2)cc1C | 285 ×10⁻⁶ cm/s |
| Cc1cc(NS(=O)(=O)c2ccc(NC(=O)Cc3ccc(Cl)c(F)c3)cc2)no1 | 11.5 ×10⁻⁶ cm/s |
| Clc1ccccc1-c1nccc(-n2ccnc2)n1 | > 1000 ×10⁻⁶ cm/s |
| Cc1cnc(-c2ccccc2C(C)C)nc1NCC1CCN(C2COC2)CC1 | > 1000 ×10⁻⁶ cm/s |
| O=C(c1ccc(C(=O)N2CCC(N3CCCC3)CC2)c(Nc2ccccc2)c1)N1CCC(N2CCCC2)CC1 | 7.61 ×10⁻⁶ cm/s |
| NC(=O)C1CCN(c2nc(-c3ccccc3F)cs2)CC1 | 558 ×10⁻⁶ cm/s |
| Cc1ccc(OCCn2c(CCNC(=O)c3ccccc3Br)nc3ccccc32)cc1 | 993 ×10⁻⁶ cm/s |
| CC(=O)Nc1cccc(-c2csc(Nc3cc(C)ccn3)n2)c1 | > 1000 ×10⁻⁶ cm/s |
| CCOC(=O)[C@H]1O[C@H]1C(=O)N[C@@H](CC(C)C)C(=O)NCCC(C)C | 89 ×10⁻⁶ cm/s |
| CCCS(=O)(=O)c1nc(NC2CC2)cc(-c2ccc3c(ccn3C3CC(C)(C)NC(C)(C)C3)c2)n1 | 107 ×10⁻⁶ cm/s |
| Fc1cc(Nc2nc(-c3ccncc3)nc3ccccc23)ccc1-c1cccc(OC(F)F)c1 | 30.1 ×10⁻⁶ cm/s |
| COc1ccc(O)c2c(=O)c3c(OC)cc4c(c3oc12)C1C=COC1O4 (centres undefined) | 890 ×10⁻⁶ cm/s |
| Cc1cc(C)nc(NC(=S)N2CCN(c3cccc([N+](=O)[O-])c3)CC2)c1 | > 1000 ×10⁻⁶ cm/s |
| CC1(C)CNc2cc(NC(=O)c3cccnc3NCc3ccncc3)ccc21 | > 1000 ×10⁻⁶ cm/s |
| CCOc1ccc(CCNC(=O)c2ccc3ccccc3n2)cc1OCC | > 1000 ×10⁻⁶ cm/s |
| COc1cccc(C(=O)Nc2ccc3c(N4CCOCC4)ncnc3c2)c1 | 39 ×10⁻⁶ cm/s |
| Cc1nc2sccn2c(=O)c1S(=O)(=O)Nc1ccc(N2CCN(C)CC2)cc1 | 289 ×10⁻⁶ cm/s |
| N#Cc1ccc(-c2ccc(CNc3ccc(C4CCNCC4)cc3)o2)cc1 | 459 ×10⁻⁶ cm/s |
